In patent US20250255876A1, “COMPOSITIONS AND METHODS FOR CANCER TREATMENT” (ARIEL SCIENTIFIC INNOVATIONS LTD., priority 2021, published 2025):

Key:
MAD2L2-Rev1 complex = MAD2L2-Rev1 complex (Homo sapiens, UniProt Q9UI95); assay: GFP-Trap co-immunoprecipitation of YFP-Rev1 and myc-MAD2L2 in HEK293 cells; type: cell-based; set-up: expressed in transfected cells; host or cells: HEK293; details: 50 μM; for reduction of MAD2L2-Rev1 binding (complex formation): 24 h
Experimental: HEK293 cells were plated in 10-cm plates at 40-50% confluency. The next day, the cells were co-transfected with YFP-Rev1 and myc-MAD2L2 plasmids. After 24 hours, 50 µM inhibitor compounds (or DMSO negative control) were applied to the cells and growth continued for another 24 hours. The cells were then harvested and protein extraction was performed, followed by IP pulldown of the YFP-Rev1 species with GFP-Trap A conjugated agarose beads, to assess the levels of Co-IP'ed myc-REV7.
Medium/DMEM (Biological Industries Israel Beit Haemek; 01-052-1A) with 4.5 g/l D-glucose, 4 mM L-glutamine, 10% fetal bovine serum (Biological Industries Israel Beit Haemek; 04-007-1A), and 1% penicillin/streptomycin. The H1975 cells were cultured in RPMI 1640 medium (Biological Industries Israel Beit Haemek; 01-100-1A) with 4.5 g/l D-glucose, 4 mM L-glutamine, 10% fetal bovine serum (Biological Industries Israel Beit Haemek; 04-007-1A), and 1% penicillin/streptomycin. Transfections of HEK293 cells with plasmid DNA were performed using the Avalanche® Everyday Transfection Reagent (EZT-EVDY-1); according to the manufacturer's protocol. Briefly, cells were passaged the day before transfection to reach a confluency of 60-70%. The next day, the selected plasmid DNA was incubated in serum-free media with the recommended volume of transfection reagent for 20 minutes at room temperature. This transfection mix was gently added to the prepared cell culture plate(s) for continued incubation at 37° C. For co-IP experiment plates, after 24 hours, the relevant compound (DMSO vehicle, c #2, or c #3) was added in pre-warmed media, and the transfected plates were incubated for another 24 hours at 37° C. until harvesting.
HEK293 cells were harvested 48 h following co-transfection and lysed in extraction buffer (50 mM Tris pH 8, 150 mM NaCl, 20 mM EDTA, 50 mM NaF, 1% TritonX) supplemented with Merck® 1000×protease inhibitor (539134). Cells were lysed on ice for 30 minutes and centrifuged at 20,000 g for 30 minutes at 4° C. For immunoblotting, extracts were boiled in Laemmli buffer for 5 min. Equal amounts of protein sample (30 μg) were loaded on 8%-12% acrylamide gel and transferred to a nitrocellulose membrane (Amersham). For immunoprecipitations, clarified lysates were supplemented with 7 μl of equilibrated GFP-Trap antibody-conjugated agarose beads (Chromotek; gta-20) and incubated for 1-2 h at 4° C. Beads were washed three times in PBS buffer and boiled in Laemmli buffer for 5 minutes. The following primary antibodies were used for immunoblotting: Myc (Santa Cruz; SC-40) 1:1000 dilution, GFP (Santa Cruz, SC-9996) 1:1000 dilution, MAD2L2 (ProteinTech; 12683-1-AP). […]

H1975 cells = assay: Colony survival assay, H1975 cells; type: cell-based; details: for survival rate, combined treatment: H1975, 5 μM cisplatin + 50 μM compound; for toxicity / cell viability, compound alone: H1975, 50 μM compound alone; for sensitization effect to cisplatin: H1975, cisplatin + 50 μM compound; for sensitization to doxorubicin: H1975, doxorubicin + 50 μM compound, 48 h; for cell survival with cisplatin plus inhibitor: H1975, varying cisplatin, 48 hours
Experimental: H1975 cells were plated in 24-well plates at 50,000 cells/well (for 50 µM inhibitor treatment) or 20,000 cells/well (for […] inhibitor treatment). U2OS and A549 cells were plated in 24-well plates at 5000 cells/well. The next day, cells were treated with varying concentrations of cisplatin, either with or without added inhibitor compound. After 48 hours of cisplatin+compound treatment, the cells were washed 3 times with PBS×1 and fresh media applied. After 4 days of recovery, the cells were stained with methylene blue and imaged using a Nikon SMZ25 stereomicroscope. The images were analyzed using the ImageJ (National Institutes of Health) area measurement tool to quantify total colony size in each well.
Cells were plated in 24-well plates at 50,000 cells/well (H1975 line) or 10,000 cells/well (A549 line). The next day, cells were treated with varying concentrations of cisplatin ([…]), with or without 50 μM compound. For the untreated control wells containing only cisplatin, DMSO was applied in place of the compound. After 48 hours of cisplatin+compound treatment, the cells were washed 3 times with PBS and fresh media was applied. After 4 days of recovery, the cells were stained with methylene blue and imaged using a Nikon SMZ25 stereomicroscope. The images were analyzed using the ImageJ (National Institutes of Health) area measurement tool to quantify total colony size in each well.
In order to assess the ability of the selected compounds to sensitize cells during cisplatin treatment, the inventors established a colony survival assay comparing the viability of cells treated with cisplatin alone or with combined treatment of cisplatin and 50 μM compound. For the compound screen, we used two lung cancer cell lines: human non-small lung carcinoma H1975 cells, and epithelial lung adenocarcinoma A549 cells. Out of ten compounds tested, compounds c #2 and c #3 were identified with the most significant sensitization effect and were chosen for future characterization. […] Survival rate was reduced from 90% in 5 μM cisplatin treatment to 50% survival in the combined treatment (FIGS. 11A-B). H1975 cells presented similar behavior following doxorubicin treatment (FIG. 11C). IC50 was calculated using linear regression, presenting a clear reduction of cisplatin's IC50 in all treatments.

Chain of MAD2L2-Rev1 complex (Q9UI95 whole entry, one chain of several): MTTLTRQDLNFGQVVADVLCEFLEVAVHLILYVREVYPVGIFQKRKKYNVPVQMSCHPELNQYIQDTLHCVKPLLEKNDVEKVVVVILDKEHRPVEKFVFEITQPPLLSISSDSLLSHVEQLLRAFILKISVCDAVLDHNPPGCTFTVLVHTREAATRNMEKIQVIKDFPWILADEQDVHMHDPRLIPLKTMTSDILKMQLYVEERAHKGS

Compound | Rev1-Rev7 binding interaction (in words) (MAD2L2-Rev1 complex) | reduction of MAD2L2-Rev1 binding (complex formation) (MAD2L2-Rev1 complex) | survival rate, combined treatment (H1975 cells) [%] | toxicity / cell viability, compound alone (H1975 cells) | toxicity / cell viability, compound alone (H1975 cells; listed as c #2) | sensitization effect to cisplatin (H1975 cells) | sensitization to doxorubicin (H1975 cells) | cell survival with cisplatin plus inhibitor (H1975 cells) | toxicity / cell viability, compound alone (H1975 cells; listed as c #3)
CNc1nc(N2CCCCC2)nc(-n2cnc(SCC(N)=O)n2)n1 [Compound 2] | reduction in Rev1-Rev7 binding interaction | about 50% | 50 | no reduction in cell viability | caused no toxicity | approximately twofold sensitization effect | sensitized | reduction in cell survival | 
Cc1oc(-c2ccco2)nc1CC(=O)N[C@@H](C(=O)O)c1ccccc1 [Compound 3] | reduction in Rev1-Rev7 binding interaction | about 80% | 50 | no reduction in cell viability |  | approximately twofold sensitization effect | sensitized | reduction in cell survival | caused no toxicity
